The source of these data is patent US10274490B2, “Magnetic labeling of bacteria” (The General Hospital Corporation, priority 2012, dated 2019).

SMILES strings stand for the structures. pKi: −log10 of the molar value.

Data set [1] is described as follows: Molar extinction coefficient. Type of data set: physicochemical. Particulars: 592 nm.
The test system of data set [2] is S. aureus (Gram-positive). Nature of the data set: Gram staining, bright field microscopy. It counts as cell-based, Staphylococcus aureus. Particulars: 1 mM Crystal Violet-TCO 3 min, iodine, 95% ethanol, Safranin counterstain. As to the method:
Bacterial cells were smeared onto microscopic slides, and stained with standard crystal violet (20 mM) or CV-TCO (1 mM) in 20% ethanol solution containing 8 mg/ml ammonium oxalate for 3 min. After washing with deionized water, slides were treated with Gram Iodine (BD Biosciences), decolorized with 95% ethanol solution, and counterstained with Gram safranin (BD Biosciences). Slides were observed using a bright field light microscope.
To test the efficacy of Crystal Violet-TCO as a staining agent for Gram-positive bacteria, three representative samples were prepared: Staphylococcus aureus (S. aureus; Gram-positive), Escherichia coli (E. coli; Gram-negative), and the mixture of both bacterial species. Bacterial smears on glass slides were stained with a solution of Crystal Violet-TCO (1 mM) or Crystal Violet for 3 min., followed by treatment with Gram's iodine solution for one minute, decolorization with 95% ethanol, and counterstaining with red Safranin solution.

The test system of data set [3] is S. aureus (Gram-positive). Nature of the data set: Absorbance at 595 nm / UV-visible spectrometry of stained bacteria. It counts as cell-based, Staphylococcus aureus. The settings on record: E. coli (G−) as comparison. As to the method:
(§1) Bacterial cells in media were first washed with phosphate buffered saline solution (PBS). For μNMR measurements, absorbance measurements, confocal microscopy, and transmission electron microscopy (TEM), the bacteria (10^8 in 100 μl) were stained with 200 μM CV-TCO in 20% ethanol solution containing 8 mg/ml ammonium oxalate for 5 min. at room temperature, and washed with PBS. Then the bacteria were treated with Gram Iodine solution for 1 min. and decolorized with 95% ethanol solution. For μNMR and confocal microscopy, bacteria were incubated with 50 μg/ml MFNP-Tz in PBS for 20 min. at room temperature, and washed twice with PBS. For confocal microscopy, labeled bacteria were mounted on microscopic slides with Vectashield containing propium iodide (Vector Laboratories), and imaged. For TEM, the stained and decolorized bacteria were incubated with 50 μg/ml GNP-Tz in PBS for 1 h, washed with PBS, and dehydrated with graded ethanol series before applying onto a carbon grid (Ted Pella).

Data set [4] relates to Gram-positive species. The experiment in a line: μNMR cellular relaxivity of bacteria stained with Crystal Violet-TCO and labeled with MFNP-Tz. It counts as cell-based. Particulars: panel of bacterial species. As for the experimental part:
Bacterial cells in media were first washed with phosphate buffered saline solution (PBS). For μNMR measurements, absorbance measurements, confocal microscopy, and transmission electron microscopy (TEM), the bacteria (10^8 in 100 μl) were stained with 200 μM CV-TCO in 20% ethanol solution containing 8 mg/ml ammonium oxalate for 5 min. at room temperature, and washed with PBS. Then the bacteria were treated with Gram Iodine solution for 1 min. and decolorized with 95% ethanol solution. For μNMR and confocal microscopy, bacteria were incubated with 50 μg/ml MFNP-Tz in PBS for 20 min. at room temperature, and washed twice with PBS. […]
To test whether bacteria labelled with Crystal Violet-TCO could be magnetically labeled via cycloaddition to the TCO group, bacteria stained with Crystal Violet-TCO were incubated with magnetofluorescent nanoparticles modified with tetrazine (MFNP-Tz). […] The T2 relaxation values of samples were measured using a miniaturized μNMR system. For comparative analyses, the absorption (at 595 nm) of the same samples was also measured. Cellular relaxivity (r2) was obtained by normalizing the measured 1/T2 values with bacterial concentration, and the r2 differences (Δr2) between targeted and control samples were calculated. […]

Data set [5] deals with S. aureus. Nature of the data set: μNMR sensitivity of the assay, serially diluted bacterial samples. It counts as cell-based, Staphylococcus aureus. The settings on record: Crystal Violet-TCO and MFNP-Tz. As for the experimental part: as §1
To measure the sensitivity of the assay, measurements with serially diluted bacterial samples were performed and established a detection limit of about 4,000 bacteria with the experimental set-up used. […] Limit of detection was ˜4000 CFU.

Data set [6] concerns S. aureus. The experiment in a line: Confocal microscopy (MFNP-Tz) and TEM (GNP-Tz) of Crystal Violet-TCO stained bacteria. It counts as cell-based, Staphylococcus aureus. As to the method: as §1
The left, middle, and right panels show images of the red channel, green channel, and a merged image of the red and green channels, respectively (Red: propidium iodide for nuclear staining; Green: MNFP-Tz staining; Scale bar=10 μm).
Gold nanoparticles were used instead of magnetic nanoparticles to obtain higher contrast.

Data set [7] relates to E. coli (Gram-negative). The experiment in a line: Confocal microscopy control experiment. Type of data set: cell-based, Escherichia coli. Particulars: Crystal Violet-TCO stained, decolorized. As to the method:
as §1
The green channel (left) indicates MNFP-Tz, and the red channel (right) indicates propidium iodide. (Scale bar=5 μm).

Data set [8] relates to Gram-positive and Gram-negative bacteria. The experiment in a line: μNMR detection before and after decolorization. Type of data set: cell-based. As to the method: as §1
The magnetic labeling detection strategy using Crystal Violet-TCO can be applied to detect both Gram-positive and Gram-negative bacteria. A modified protocol was adopted in which staining was performed without the decolorization process, which results in labeling both Gram-positive and Grain-negative bacteria, since the Gram-negative bacteria also retain the Crystal Violet-TCO. […]

Data set [9] deals with Gram-positive bacteria. The experiment in a line: Competitive inhibition of vancomycin-TCO labeling by unmodified vancomycin. The settings on record: 1-200 μM unmodified vancomycin added to 20 μM vancomycin-TCO; fluorescence and magnetic resonance; all Gram-positive bacteria; read-out: inhibition binding constant (Ki). As to the method:
For two-step labeling, the washed cells were incubated with 1-20 μM vancomycin TCO in PBS-F at room temperature for 30 min. For competition studies, 1-200 μM unmodified vancomycin was added to 20 μM vancomycin-TCO.
To further characterize the binding properties of vancomycin-TCO, competitive inhibition studies were performed in which unmodified vancomycin was introduced together with vancomycin-TCO, before reacting with MFNP-Tz.
FIGS. 8A and 8B show the results of competition studies of vancomycin-TCO using both fluorescence (FIG. 8A) and magnetic resonance (FIG. 8B) measurements. […] The inhibition binding constant (Ki) was about 6 μM for all Gram-positive bacteria, a value which was similar to that of vancomycin-TCO.

Data set [10] relates to Nocardia Farcinica. Nature of the data set: Bioorthogonal labeling with Trehalose-TCO and Oregon Green-Tz, cell fluorescence microscopy. Type of data set: cell-based. As to the method: Nocardia Farcinica bacteria (ATCC 3308) at an OD600 of 0.8 in growth medium (0.1 mL) was added 100 μM Trehalose-TCO, Trehalose-fluorescein or DMSO (as a control) in growth media (1% DMSO). Bacteria were incubated at 37° C. with shaking for 16 h. Bacteria were then centrifuged (7 min., 8000 rpm) and washed (2×100 μL PBS solution containing 2% fetal bovine serum (FBS) and 1 mg/mL bovine serum albumin (BSA) PBS-F).
Bacteria treated with Trehalose-TCO were incubated with 50 μg/mL MFNP-Tz MNFP-Tz or 10 μM Oregon Green-Tz for 20 min. in PBS-F. Bacteria were then centrifuged (7 min., 8000 rpm) and washed (2×100 μL PBS-F). Bacteria were then fixed with 10% PFA in PBS (100 μL) for 20 min., centrifuged and resuspended in 10 μL PBS. 3 μL were spread out on a 96 wells plates (Nunc, Cat No 137103 (Roskilde, Denmark, pre-wet with PBS-F). Bacteria were dried out in an incubator 37 C for 30 min. then mounting media containing […] was added to samples. Imaging was done on a DeltaVision microscope (Applied Precision Instruments) at 60×.

The test system of data set [11] is Gram-positive bacteria. The experiment in a line: Fluorescence spectrometry of bacteria labeled with daptomycin-TCO and MFNP-Tz. The settings on record: daptomycin-TCO at various concentrations, then MFNP-Tz. Type of data set: cell-based. As to the method:
(§2) For two-step labeling using Daptomycin-TCO, the drug conjugates were incubated in buffer solution containing 5 mM 4-(2-hydroxyethyl)-1-piperazineethanesulfonic acid (HEPES), 5 mM CaCl2, 2% FBS, and 1 mg/ml BSA at room temperature for 30 min. After washing twice with PBS-F, bacterial cells were incubated with 50 μg/ml MFNP-Tz in PBS-F for 20 min. at room temperature.
For fluorescence spectrometry, μNMR measurements, and flow cytometry, the cells were fixed in 10% paraformaldehyde (PFA) for 30 min., and then exchanged into PBS solution. Fluorescence measurements were taken using the Safire2 microplate reader (TECAN, Mannedorf, Switzerland). Increased relative fluorescence intensity (% RFU) values were calculated as 100×(Itarget−Inon)/Inon, where Itarget and Inon are intensity values of targeted and non-targeted bacteria, respectively. Flow cytometry was performed using LSRII (BD Biosciences). All labeling experiments and measurements were performed at least 3 times to confirm the reproducibility and robustness of the method.
(§3) Daptomycin-TCO was used to magnetically label bacteria using methods similar to those described in Example 1.

For data set [12], the system named is Gram-positive bacteria. The experiment in a line: Magnetic resonance detection of bacteria labeled with daptomycin-TCO and MFNP-Tz. It counts as cell-based. The settings on record: daptomycin-TCO then MFNP-Tz. As to the method: as §2
All μNMR measurements were performed using the portable NMR system recently developed for point-of-care operations as described by Issadore, et al. Lab Chip 2011, 11, 2282-87. The polarizing magnetic field was ˜0.5 T. Transverse relaxation times were measured on 1-2 μL sample volumes, using Carry-Purcell-Meiboom-Gill pulse sequences with the following parameters: echo time, 3 ms; repetition time, 4 s; number of 180° pulses per scan, 900; number of scans, 7.
as §3

As for `CC[N+](CCNC(=O)OC1CC/C=C/CCC1)=C1C=CC(=C(c2ccc(N(C)C)cc2)c2ccc(N(C)C)cc2)C=C1` (centres unmarked) [Crystal Violet-TCO, (E)-N-(4-(bis(4-(dimethylamino)phenyl)methylene)cyclohexa-2,5-dien-1-ylidene)-2-(((cyclooct-4-en-1-yloxy)carbonyl)amino)-N-ethylethanaminium chloride], the “molar extinction coefficient ε592” value in data set [1] is 133013 L/mol/cm. Further, the “colour after Gram staining and decolorization” value in data set [2] is listed as “remained purple”. Also, in [3], the “UV absorbance of stained bacteria” value is recorded as “intense absorption at 595 nm”. Also, the “cellular relaxivity of Gram-positive species” value in data set [4] is “significantly higher cellular relaxivity values when compared to Gram-negative bacteria”. For the same compound, the detection limit entry in [5] is “about 4,000 bacteria”. In [5] (ΔR2), this compound displayed a Limit of detection of about 4000 CFU. Besides, the “transmission electron microscopy observation” value in data set [6] (CV-TCO then GNP-Tz) is listed as “Gold nanoparticles were found distributed throughout the bacterial surface”. Also, in data set [6] (Crystal Violet-TCO then MFNP-Tz), the confocal microscopy observation entry was “uniform and high fluorescence signals in the bacterial cell wall”. Also, the “confocal microscopy MFNP-Tz signal” value in data set [7] was “absence of MFNP-Tz signal”. Moreover, the μNMR detection entry was “only Gram-positive species retained their signals” in [8] (after decolorization); “both Gram-positive and negative bacteria could be magnetically labeled and detected” in [8] (before decolorization).
As for `CN(C)c1ccc(C(=C2C=CC(=[N+](C)C)C=C2)c2ccc(N(C)C)cc2)cc1` [crystal violet, reference compound], the “molar extinction coefficient ε592” value in [1] is 89146 L/mol/cm.
One may read the pKi as −log10 of the Ki, conventionally taken in molar units. As for `CN[C@H](CC(C)C)C(=O)N[C@H]1C(=O)N[C@@H](CC(N)=O)C(=O)N[C@H]2C(=O)N[C@H]3C(=O)N[C@H](C(=O)N[C@H](C(=O)O)c4cc(O)cc(O)c4-c4cc3ccc4O)[C@H](O)c3ccc(c(Cl)c3)Oc3cc2cc(c3O[C@@H]2O[C@H](CO)[C@@H](O)[C@H](O)[C@H]2O[C@H]2C[C@](C)(N)[C@H](O)[C@H](C)O2)Oc2ccc(cc2Cl)[C@H]1O` [vancomycin], the pKi in data set [9] is about 5.22.
For the compound `C[C@]1(O[C@H]2O[C@H](CO)C(O)C(O)C2NC(=O)OC2CC/C=C/CCC2)OC(CO)[C@@H](O)C(O)C1O` (stereo partly drawn) [Trehalose-TCO, 1-deoxy-α-D-gluco-hept-2-ulopyranosyl-(2→1)-2-deoxy-2-((E)-cyclooct-4-en-1-yl carbamate)-α-D-glucopyranoside], in [10] (0-16 h, subsequent labeling with Oregon Green-Tz), the kinetics of incorporation result is reported as “gradual increase in the extent of labeling”. In data set [10] (100 μM Trehalose-TCO 16 h, then 10 μM Oregon Green-Tz), the cell fluorescence result is listed as “Bright green fluorescence of the cells is observed”.
Consider `CCCCCCCCCC(=O)N[C@@H](Cc1c[nH]c2ccccc12)C(=O)N[C@@H](CC(N)=O)C(=O)N[C@@H](CC(=O)O)C(=O)N[C@@H]1C(=O)NCC(=O)N[C@@H](CCCNC(=O)OC2CC/C=C/CCC2)C(=O)N[C@@H](CC(=O)O)C(=O)N[C@H](C)C(=O)N[C@@H](CC(=O)O)C(=O)NCC(=O)N[C@H](CO)C(=O)N[C@@H]([C@@H](C)CC(=O)O)C(=O)N[C@@H](CC(=O)c2ccccc2N)C(=O)O[C@@H]1C` (some centres unmarked) [daptomycin-TCO], for which the “increased relative fluorescence intensities” value in data set [11] was “up to 220%”. In [12], the cellular relaxivity was 1.32 s^−1[CFU/μL]^−1.
